From PubChem BioAssay (NCI)
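Results reflect a 48-hour exposure of cells in 96-well plates to compound at five concentrations. GI50 is the concentration that inhibits growth by half. TGI denotes the concentration required for complete inhibition of growth.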

Assays:
Test in all cases: DTP human tumour cell line panel, 48 h
SK-MEL-5 melanoma = system: SK-MEL-5 melanoma
MCF7 breast = system: MCF7 breast
UACC-257 melanoma = system: UACC-257 melanoma
T-47D breast = system: T-47D breast
LOX IMVI melanoma = system: LOX IMVI melanoma
HOP-92 NSCLC = system: HOP-92 NSCLC
SK-OV-3 ovarian = system: SK-OV-3 ovarian
ACHN renal = system: ACHN renal
SF-539 CNS = system: SF-539 CNS
NCI/ADR-RES ovarian = system: NCI/ADR-RES ovarian
HCT-15 colon = system: HCT-15 colon
KM12 colon = system: KM12 colon
HCT-116 colon = system: HCT-116 colon
SK-MEL-28 melanoma = system: SK-MEL-28 melanoma
OVCAR-5 ovarian = system: OVCAR-5 ovarian
A549 NSCLC = system: A549 NSCLC
HT29 colon = system: HT29 colon
NCI-H460 lung = system: NCI-H460 lung
K-562 leukemia = system: K-562 leukemia
786-0 renal = system: 786-0 renal
MALME-3M melanoma = system: MALME-3M melanoma
HL-60(TB) leukemia = system: HL-60(TB) leukemia
OVCAR-3 ovarian = system: OVCAR-3 ovarian
RXF 393 renal = system: RXF 393 renal
U251 CNS = system: U251 CNS
SF-268 CNS = system: SF-268 CNS
NCI-H522 lung = system: NCI-H522 lung
SNB-19 CNS = system: SNB-19 CNS
SF-295 CNS = system: SF-295 CNS
MDA-MB-435 = system: MDA-MB-435
UO-31 renal = system: UO-31 renal
OVCAR-8 ovarian = system: OVCAR-8 ovarian
A498 renal = system: A498 renal
TK-10 renal = system: TK-10 renal
MOLT-4 leukemia = system: MOLT-4 leukemia
NCI-H23 lung = system: NCI-H23 lung
PC-3 prostate = system: PC-3 prostate
IGROV1 ovarian = system: IGROV1 ovarian
CCRF-CEM leukemia = system: CCRF-CEM leukemia
SW-620 colon = system: SW-620 colon
SR leukemia = system: SR leukemia
HCC-2998 colon = system: HCC-2998 colon
DU-145 prostate = system: DU-145 prostate
SN12C renal = system: SN12C renal
M14 melanoma = system: M14 melanoma
UACC-62 melanoma = system: UACC-62 melanoma
HS 578T breast = system: HS 578T breast
CAKI-1 renal = system: CAKI-1 renal
RPMI-8226 leukemia = system: RPMI-8226 leukemia
SK-MEL-2 melanoma = system: SK-MEL-2 melanoma
MDA-MB-231 breast = system: MDA-MB-231 breast
HOP-62 NSCLC = system: HOP-62 NSCLC
COLO 205 colon = system: COLO 205 colon
SNB-75 CNS = system: SNB-75 CNS
NCI-H226 lung = system: NCI-H226 lung
BT-549 breast = system: BT-549 breast
OVCAR-4 ovarian = system: OVCAR-4 ovarian
EKVX NSCLC = system: EKVX NSCLC

NC1CCC(Nc2nc(NCc3ccc(-c4cccs4)nc3)c3ncn(C4CCCC4)c3n2)CC1 (stereo unspecified)
GI50 (SK-MEL-5 melanoma): 280 nM
TGI (SK-MEL-5 melanoma): 1280 nM
GI50 (MCF7 breast): 30.1 nM
TGI (MCF7 breast): 1140 nM
GI50 (UACC-257 melanoma): 56.8 nM
TGI (UACC-257 melanoma): 295 nM
GI50 (T-47D breast): 33 nM
TGI (T-47D breast): 699 nM
GI50 (LOX IMVI melanoma): 296 nM
TGI (LOX IMVI melanoma): 3480 nM
GI50 (HOP-92 NSCLC): 30 nM
TGI (HOP-92 NSCLC): 134 nM
GI50 (SK-OV-3 ovarian): 126 nM
TGI (SK-OV-3 ovarian): 4280 nM
GI50 (ACHN renal): 276 nM
TGI (ACHN renal): 1010 nM
GI50 (SF-539 CNS): 157 nM
TGI (SF-539 CNS): 395 nM
GI50 (NCI/ADR-RES ovarian): 244 nM
TGI (NCI/ADR-RES ovarian): 4290 nM
GI50 (HCT-15 colon): 342 nM
TGI (HCT-15 colon): 5360 nM
GI50 (KM12 colon): 28.5 nM
TGI (KM12 colon): 743 nM
GI50 (HCT-116 colon): 33.2 nM
TGI (HCT-116 colon): 1150 nM
GI50 (SK-MEL-28 melanoma): 29.6 nM
TGI (SK-MEL-28 melanoma): 117 nM
GI50 (OVCAR-5 ovarian): 30.2 nM
TGI (OVCAR-5 ovarian): 2580 nM
GI50 (A549 NSCLC): 23.7 nM
TGI (A549 NSCLC): 2040 nM
GI50 (HT29 colon): < 14.3 nM
TGI (HT29 colon): 315 nM
GI50 (NCI-H460 lung): 91.3 nM
TGI (NCI-H460 lung): 2190 nM
GI50 (K-562 leukemia): 39.7 nM
TGI (K-562 leukemia): 777 nM
GI50 (786-0 renal): 122 nM
TGI (786-0 renal): 1120 nM
GI50 (MALME-3M melanoma): 122 nM
TGI (MALME-3M melanoma): 523 nM
GI50 (HL-60(TB) leukemia): 20.6 nM
TGI (HL-60(TB) leukemia): 64.4 nM
GI50 (OVCAR-3 ovarian): 49.2 nM
TGI (OVCAR-3 ovarian): 731 nM
GI50 (RXF 393 renal): 14.8 nM
TGI (RXF 393 renal): 37.8 nM
GI50 (U251 CNS): 32.7 nM
TGI (U251 CNS): 434 nM
GI50 (SF-268 CNS): 18.8 nM
TGI (SF-268 CNS): 1080 nM
GI50 (NCI-H522 lung): < 16 nM
TGI (NCI-H522 lung): 49 nM
GI50 (SNB-19 CNS): 30.2 nM
TGI (SNB-19 CNS): 3750 nM
GI50 (SF-295 CNS): 81.9 nM
TGI (SF-295 CNS): 699 nM
GI50 (MDA-MB-435): 28.2 nM
TGI (MDA-MB-435): 1080 nM
GI50 (UO-31 renal): 203 nM
TGI (UO-31 renal): 661 nM
GI50 (OVCAR-8 ovarian): 50.4 nM
TGI (OVCAR-8 ovarian): 12900 nM
GI50 (A498 renal): 72.5 nM
TGI (A498 renal): 225 nM
GI50 (TK-10 renal): 166 nM
TGI (TK-10 renal): 2690 nM
GI50 (MOLT-4 leukemia): 25 nM
TGI (MOLT-4 leukemia): 502 nM
GI50 (NCI-H23 lung): 38.3 nM
TGI (NCI-H23 lung): 319 nM
GI50 (PC-3 prostate): 33.7 nM
TGI (PC-3 prostate): 1040 nM
GI50 (IGROV1 ovarian): 36.3 nM
TGI (IGROV1 ovarian): 1930 nM
GI50 (CCRF-CEM leukemia): 32.9 nM
TGI (CCRF-CEM leukemia): 554 nM
GI50 (SW-620 colon): < 15.2 nM
TGI (SW-620 colon): 2030 nM
GI50 (SR leukemia): 32.8 nM
TGI (SR leukemia): 582 nM
GI50 (HCC-2998 colon): 30.7 nM
TGI (HCC-2998 colon): 490 nM
GI50 (DU-145 prostate): 93.3 nM
TGI (DU-145 prostate): 4420 nM
GI50 (SN12C renal): 34.1 nM
TGI (SN12C renal): 1810 nM
GI50 (M14 melanoma): 25.8 nM
TGI (M14 melanoma): 337 nM
GI50 (UACC-62 melanoma): 87 nM
TGI (UACC-62 melanoma): 365 nM
GI50 (HS 578T breast): 26.9 nM
TGI (HS 578T breast): 2280 nM
GI50 (CAKI-1 renal): 1620 nM
TGI (CAKI-1 renal): 9920 nM
GI50 (RPMI-8226 leukemia): 22.7 nM
TGI (RPMI-8226 leukemia): 137 nM
GI50 (SK-MEL-2 melanoma): 90.8 nM
TGI (SK-MEL-2 melanoma): 288 nM
GI50 (MDA-MB-231 breast): 24 nM
TGI (MDA-MB-231 breast): 1590 nM
GI50 (HOP-62 NSCLC): 27.6 nM
TGI (HOP-62 NSCLC): 98.7 nM
GI50 (COLO 205 colon): 16.9 nM
TGI (COLO 205 colon): 35 nM
GI50 (SNB-75 CNS): 16 nM
TGI (SNB-75 CNS): 58.8 nM
GI50 (NCI-H226 lung): 131 nM
TGI (NCI-H226 lung): 1310 nM
GI50 (BT-549 breast): 131 nM
TGI (BT-549 breast): 626 nM
GI50 (OVCAR-4 ovarian): 32.6 nM
TGI (OVCAR-4 ovarian): 1060 nM
GI50 (EKVX NSCLC): 42.6 nM
TGI (EKVX NSCLC): 762 nM
